Measured values: patent US8278319B2, “Substituted spiroamine compounds” (Gruenenthal GmbH, priority 2008, dated 2012)

Key:
rat B1R = target: T1, rat B1R (Rattus norvegicus, UniProt P97583); assay: Functional investigation on the bradykinin receptor 1 (B1R), FLIPR Ca2+ assay, rB1R cells; assay type: cell-based; details: % inhibition rat B1R at 10 μM; CHO K1 cells transfected with rat B1R; agonist Des-Arg9 bradykinin at EC80; read-out: % Inh. (rat B1R) 10 μM
T1 construct: expressed in transfected cells; host or cells: CHO K1 cells
T1 sequence (P97583 1-337): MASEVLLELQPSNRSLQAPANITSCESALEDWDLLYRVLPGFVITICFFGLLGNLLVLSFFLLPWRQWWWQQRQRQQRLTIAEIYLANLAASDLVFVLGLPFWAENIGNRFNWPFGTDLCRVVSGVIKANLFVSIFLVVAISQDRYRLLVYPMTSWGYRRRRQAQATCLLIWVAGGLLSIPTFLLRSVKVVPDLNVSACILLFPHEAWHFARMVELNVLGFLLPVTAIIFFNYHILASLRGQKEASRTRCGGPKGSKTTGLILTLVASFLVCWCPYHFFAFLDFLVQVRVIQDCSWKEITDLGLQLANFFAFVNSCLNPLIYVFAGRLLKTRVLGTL
Protocol: (§1) The agonistic or antagonistic action of substances can be quantified on the bradykinin receptor 1 (B1R) of the human and rat species with ectopically expressing cell lines (CHO K1 cells) and with the aid of a Ca^2+-sensitive dye (Fluo-4) using a fluorescent imaging plate reader (FLIPR). The indication in % activation is based on the Ca^2+ signal after addition of Lys-Des-Arg^9 bradykinin (0.5 nM) or Des-Arg^9 bradykinin (100 nM). Antagonists lead to a suppression of the Ca^2+ influx following administration of the agonist. The % inhibition in comparison with the maximum achievable inhibition is indicated.
(§2) The agonistic or antagonistic action of substances can be determined on the bradykinin 1 receptor (B1R) of the human and rat species with the following assay. According to this assay, the Ca^2+ inflow through the channel is quantified with the aid of a Ca^2+-sensitive dye (Fluo-4 type, Molecular Probes Europe BV, Leiden, The Netherlands) in a fluorescent imaging plate reader (FLIPR, Molecular Devices, Sunnyvale, USA).
(§3) Chinese hamster ovary cells (CHO K1 cells) which are stably transfected with the human B1R gene (hB1R cells) or the B1R gene of the rat (rB1R cells) are used. For functional investigations, these cells are plated-out onto black 96-well plates with a clear base (BD Biosciences, Heidelberg, Germany or Greiner, Frickenhausen, Germany) in a density of 20,000-35,000 cells/well. Overnight, the cells are incubated at 37° C. and 5% CO2 in culture medium (hB1R cells: Nutrient Mixture Ham's F12, Gibco Invitrogen GmbH, Karlsruhe, Germany or DMEM, Sigma-Aldrich, Taufkirchen, Germany; rB1R cells: D-MEM/F12, Gibco Invitrogen, Karlsruhe, Germany) with 10 vol. % FBS (foetal bovine serum, Gibco Invitrogen GmbH, Karlsruhe, Germany or PAN Biotech GmbH, Aidenbach, Germany). On the following day the cells are loaded with 2.13 μM Fluo-4 (Molecular Probes Europe BV, Leiden, The Netherlands) in HBSS buffer (Hank's buffered saline solution, Gibco Invitrogen GmbH, Karlsruhe, Germany) with 2.5 mM probenecid (Sigma-Aldrich, Taufkirchen, Germany) and 10 mM HEPES (Sigma-Aldrich, Taufkirchen, Germany) for 60 min at 37° C. The plates are the washed twice with HBSS buffer, and HBSS buffer which additionally contains 0.1% BSA (bovine serum albumin; Sigma-Aldrich, Taufkirchen, Germany), 5.6 mM glucose and 0.05% gelatine (Merck KGaA, Darmstadt, Germany) is added. After a further incubation of 20 minutes at room temperature, the plates are inserted into the FLIPR for Ca^2+ measurement. Alternatively they are washed with buffer A (15 mM HEPES, 80 mM NaCl, 5 mM KCl, 1.2 mM CaCl2, 0.7 mM MgSO4, 2 g/l glucose, 2.5 mM probenecid) and loaded with buffer A with added 2.5 μM Fluo-4 and 0.025% Pluronic F127 (Sigma-Aldrich, Taufkirchen, Germany). The cells are then washed twice with buffer A and incubated for 30 minutes with buffer A, which additionally contains 0.05% BSA and 0.05% gelatine, at room temperature and then used for Ca^2+ measurement in the FLIPR.
(§4) The Ca^2+-dependent fluorescence is measured here before and after addition of substances (λex=488 nm, λem=540 nm). The quantification is performed by measuring the highest fluorescence intensity (FC, fluorescence counts) over time.
(§5) The FLIPR protocol comprises two additions of substance. Test substances (10 μM) are first pipetted onto the cells and the Ca^2+ inflow is compared with the control (hB1R: Lys-Des-Arg^9 bradykinin>=50 nM; rB1R: Des-Arg^9 bradykinin 10 μM). The value in % activation based on the Ca^2+ signal after addition of Lys-Des-Arg^9 bradykinin (>=50 nM) or Des-Arg^9 bradykinin (10 μM) is obtained therefrom. After incubation for 10-20 minutes, Lys-Des-Arg^9 bradykinin (hB1R) or Des-Arg^9 bradykinin (rB1R) is applied in the EC80 concentration and the inflow of Ca^2+ is likewise determined. Antagonists lead to a suppression of the Ca^2+ inflow. The % inhibition in comparison with the maximum achievable inhibition is calculated. […]

human B1R = target: T2, human B1R (Homo sapiens, UniProt P46663); assay: Functional investigation on the bradykinin receptor 1 (B1R), FLIPR Ca2+ assay, hB1R cells; assay type: cell-based; details: % inhibition human B1R at 10 μM; CHO K1 cells transfected with human B1R; agonist Lys-Des-Arg9 bradykinin at EC80; read-out: % Inh. (hum. B1R) 10 μM
T2 construct: expressed in transfected cells; host or cells: CHO K1 cells
T2 sequence (P46663 1-353): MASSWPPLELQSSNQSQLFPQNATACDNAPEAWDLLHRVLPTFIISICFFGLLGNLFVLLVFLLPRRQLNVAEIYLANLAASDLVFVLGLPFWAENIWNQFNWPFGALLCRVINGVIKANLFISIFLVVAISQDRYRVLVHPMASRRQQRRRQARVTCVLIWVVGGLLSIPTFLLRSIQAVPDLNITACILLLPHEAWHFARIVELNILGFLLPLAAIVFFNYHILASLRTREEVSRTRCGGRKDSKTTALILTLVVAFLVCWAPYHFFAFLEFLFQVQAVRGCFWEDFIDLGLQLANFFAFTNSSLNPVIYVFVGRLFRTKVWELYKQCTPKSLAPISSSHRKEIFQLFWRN
Protocol: as §1, §2, §3, §4, §5

SMILES	inhibition at 10 µM (rat B1R) [%]	inhibition at 10 µM (human B1R) [%]
CN(C)C1(c2cccs2)CCC2(CCN(C(=O)CC(NS(=O)(=O)c3ccc4ccccc4c3)c3ccccc3)CC2)CC1 (stereo not shown) [CC-15, N-[3-(3-Dimethylamino-3-thiophen-2-yl-9-azaspiro[5.5]undecan-9-yl)-3-oxo-1-phenyl-propyl]-naphthalene-2-sulfonic acid amide]	100	69
COc1cc(C)c(S(=O)(=O)N2CCCCC2CCCC(=O)N2CCC3(CC2)CCC(c2cccs2)(N(C)C)CC3)c(C)c1 (stereo not shown) [CC-16, 1-(3-Dimethylamino-3-thiophen-2-yl-9-azaspiro[5.5]undecan-9-yl)-4-[1-[(4-methoxy-2,6-dimethyl-phenyl)sulfonyl]-piperidin-2-yl]-butan-1-one]	102	99
COc1cc(C)c(S(=O)(=O)N2CCCCC2COCC(=O)N2CCC3(CC2)CCC(c2ccccc2)(N2CCCC2)CC3)c(C)c1 (stereo not shown) [Compound 1, 2-((1-(4-Methoxy-2,6-dimethylphenylsulfonyl)piperidin-2-yl)methoxy)-1-(9-phenyl-9-(pyrrolidin-1-yl)-3-azaspiro[5.5]undecan-3-yl)ethanone]	92	100
COc1cc(C)c(S(=O)(=O)N2CCCC[C@H]2COCC(=O)N2CCC3(CC2)CCC(c2ccccc2)(N(C)C)CC3)c(C)c1 [Compound 2, 1-(9-(Dimethylamino)-9-phenyl-3-azaspiro[5.5]undecan-3-yl)-2-(((S)-1-(4-methoxy-2,6-dimethylphenylsulfonyl)piperidin-2-yl)methoxy)ethanone]	94	100
COc1cc(C)c(S(=O)(=O)N(CCOCC(=O)N2CCC3(CC2)CCC(c2ccccc2)(N(C)C)CC3)C2CC2)c(C)c1 [Compound 3, N-Cyclopropyl-N-(2-(2-(9-(dimethylamino)-9-phenyl-3-azaspiro[5.5]undecan-3-yl)-2-oxoethoxy)ethyl)-4-methoxy-2,6-dimethylbenzenesulfonamide]	102	100
COc1cc(C)c(S(=O)(=O)N2c3ccccc3C[C@H]2COCC(=O)N2CCC3(CC2)CCC(c2ccccc2)(N(C)C)CC3)c(C)c1 [Compound 4, 1-(9-(Dimethylamino)-9-phenyl-3-azaspiro[5.5]undecan-3-yl)-2-(((S)-1-(4-methoxy-2,6-dimethylphenylsulfonyl)indolin-2-yl)methoxy)ethanone]	102	98
CN(C)C1(c2ccccc2)CCC2(CCN(C(=O)C[C@@H](NS(=O)(=O)c3ccc4ccccc4c3)c3ccccc3)CC2)CC1 [Compound 5, N-((1R)-3-(9-(Dimethylamino)-9-phenyl-3-azaspiro[5.5]undecan-3-yl)-3-oxo-1-phenylpropyl)naphthalene-2-sulfonamide]	99	77
Cc1cccc(Cl)c1S(=O)(=O)N1CCCC[C@H]1COCC(=O)N1CCC2(CC1)CCC(c1ccccc1)(N(C)C)CC2 [Compound 6, 2-(((S)-1-(2-Chloro-6-methylphenylsulfonyl)piperidin-2-yl)methoxy)-1-(9-(dimethylamino)-9-phenyl-3-azaspiro[5.5]undecan-3-yl)ethanone]	97	100
Cc1cc(S(=O)(=O)N2CCCCC2CCC(=O)N2CCC3(CC2)CCC(c2ccccc2)(N(C)C)CC3)c(C)cc1Cl (stereo not shown) [Compound 7, 3-(1-(4-Chloro-2,5-dimethylphenylsulfonyl)piperidin-2-yl)-1-(9-(dimethylamino)-9-phenyl-3-azaspiro[5.5]undecan-3-yl)propan-1-one]	97	98
COc1cc(C)c(S(=O)(=O)N2CCCCC2CCCC(=O)N2CCC3(CC2)CCC(c2ccccc2)(N(C)C)CC3)c(C)c1 (stereo not shown) [Compound 8, 1-(9-(Dimethylamino)-9-phenyl-3-azaspiro[5.5]undecan-3-yl)-4-(1-(4-methoxy-2,6-dimethylphenylsulfonyl)piperidin-2-yl)butan-1-one]	98	98
CN(C)C1(c2ccccc2)CCC2(CCN(C(=O)CC3CCCCN3S(=O)(=O)c3cccc(C(F)(F)F)c3)CC2)CC1 (stereo not shown) [Compound 9, 1-(9-(Dimethylamino)-9-phenyl-3-azaspiro[5.5]undecan-3-yl)-2-(1-(3-(trifluoromethyl)phenylsulfonyl)piperidin-2-yl)ethan-1-one]	38	92
COc1cc(C)c(S(=O)(=O)N2C=CNC(=O)[C@H]2CC(=O)N2CCC3(CC2)CCC(c2ccccc2)(N(C)C)CC3)c(C)c1 [Compound 10, (3R)-3-(2-(9-(Dimethylamino)-9-phenyl-3-azaspiro[5.5]undecan-3-yl)-2-oxoethyl)-4-(4-methoxy-2,6-dimethylphenylsulfonyl)-3,4-dihydropyrazin-2(1H)-one]	92	100
COc1cc(C)c(S(=O)(=O)N2CCCC[C@H]2COCC(=O)N2CCC3(CC2)CCC(c2cccc(F)c2)(N(C)C)CC3)c(C)c1 [Compound 11, 1-(9-(Dimethylamino)-9-(3-fluorophenyl)-3-azaspiro[5.5]undecan-3-yl)-2-(((S)-1-(4-methoxy-2,6-dimethylphenylsulfonyl)piperidin-2-yl)methoxy)ethanone]	104	100
COc1cc(C)c(S(=O)(=O)N2CCCC[C@H]2COCC(=O)N2CCC3(CC2)CCC(c2ccccc2)(N2CCC2)CC3)c(C)c1 [Compound 12, 1-(9-(Azetidin-1-yl)-9-phenyl-3-azaspiro[5.5]undecan-3-yl)-2-(((S)-1-(4-methoxy-2,6-dimethylphenylsulfonyl)piperidin-2-yl)methoxy)ethanone]	102	100
